Results as given in US20220211858A1, “TUBULAR SUPRAMOLECULAR POLYMERS” (priority 2019, published 2022).
Read-outs that look alike come from different tables or passages of the source.

Columns and labels:
[1] = system: U87 MG human brain cancer cells; assay: cells; details: U-87 MG, 48 h
Procedure: (§1) The human brain cancer cell line U87 MG was a generous gift from Dr. Wirtz (ChemBE, JHU). DMEM (Invitrogen) containing 10% fetal bovine serum (FBS, Invitrogen) and 1% antibiotics (Invitrogen) was used for the culture of the U87 MG cells. Cancer cells were incubated at 37° C. in a humidified incubator (Oasis, Caron, Marietta, Ohio, USA) with an atmosphere of 5% CO2. […] U87 MG cells were seeded onto 96-well plates (5000 cells/well) and allowed to attach overnight. […] The stock solutions were then diluted with fresh medium to achieve final CPT concentrations of 0.1, 1, 10, 100, 500, 1000, 5000 and 10000 nM. After dilution, the nanotube-containing media were used to incubate cells immediately. Medium containing the same concentration of free CPT ranging from 0.1 to 10000 nM was also used to incubate the cells, with non-treated cells (solvent only) as the control group. In addition, irinotecan at the concentration of 0.1, 1, 5, 10, 50, 100 and 500 μM was employed as a second control. After 48 h incubation, the cell viability was evaluated using the SRB method according to the manufacturer's protocols (TOX-6, Sigma, St. Louis, Mo.).

[2] = in vivo; cited from earlier work
HT-29 cells = system: HT-29 cells
Excerpt: Antitumor efficacy study of SAPDs at the same dose on a HT-29 tumor model. […] When the averaged tumor size reached 75-95 mm^3, mice were randomly divided into six groups. […] The tumor volumes and body weights were monitored and recorded every two or three days. The tumor volume was estimated by measuring the length and width with calipers and using the equation “tumor volume=(length×width^2)/2”. Mice were euthanized once the tumor volume reached 1000 mm^3.

[3] = system: human glioblastoma U87 MG cells; assay: Antitumor efficacy study for systemic delivery, subcutaneous U87 MG tumor; assay type: in vivo, athymic nude mice; details: controls: free CPT 4.5 mg/kg i.p.; irinotecan 60 mg/kg i.p.
Procedure: A total of 2×10^6 human glioblastoma U87 MG cells were subcutaneously injected into the right shoulder of athymic nude mice (8-9 weeks old). The mice were used for the efficacy study after three to four weeks when the tumor had reached about 190-250 mm^3 in size. […]. Water insoluble free CPT was dissolved/suspended in a mixture of DMSO/ethanol/PEG-400/water (1:1:2:1). CPT (4.5 mg/kg) and irinotecan (60 mg/kg) were administered by intraperitoneal injection, while freshly prepared TT 1 solutions of various doses were administered intravenously by tail vein injection every 4 days for a total of three doses (days 1, 5, and 9). […]. Tumor volumes were measured and recorded every other day. The body weights were measured and recorded every day or every other day. The tumor volume was determined by measuring the tumor in two dimensions with calipers and using the formula “tumor volume=(length×width^2)/2”. Each animal was euthanized once the tumor volume reached the predetermined end point size of 2000 mm^3.

[4] = Tolerability of free CPT in mice; assay type: in vivo
Procedure: Due to its poor water solubility, free CPT is often given in a formulation containing a mixture of DMSO/ethanol/PEG-400/water at a volumetric ratio of 1:1:2:1 (24). […] We eventually identified an intraperitoneal injection of 4.5 mg/kg CPT to be a tolerable dosage for animal studies. In contrast, the MTD of TT 1 SPs in healthy athymic nude mice, identified in a dose escalation study through systemic administration, is within the range of 24-30 mg/kg (CPT equivalent) (FIG. 3D and FIG. 13). […] Four out of five mice survived for up to 37 d (9 mg/kg) and 43 d (15 mg/kg).

[5] = Biodistribution study in U87 MG tumor-bearing mice; assay type: in vivo, nude mice; details: nude, mouse, in vivo, 4.5 mg/kg, 4.5 mg/kg i.v., 1 hour after injection
Procedure: Mice bearing subcutaneous tumors were established by injecting 100 μL of a U87 MG suspension in serum-free medium (2×10^6 cells) into the right flank of the mice. When the tumor reached a size of −200 mm^3, the mice were randomly grouped and received one of the following 3 treatments via intravenous injection (n=18 for each group): free CPT (4.5 mg/kg), TT 1 (4.5 mg/kg), and TT 1 (15 mg/kg). Three mice from each group were euthanized at pre-determined time points (1, 2, 4, 8, 12, and 24 h). Plasma, major organs, and tumors were collected and stored at −80° C. for further analysis. To determine the amount of free CPT and TT 1 in the samples, 100 mg tumors were mixed with 900 μL acetonitrile (containing 0.1% TFA) and then homogenized using Precellys Evolution Super Homogenizer (Bertin Technologies, France) for 3×40 s (5,600 shakes/min). The resulting suspensions were centrifuged and the supernatants were collected. For plasma, 50 μL of sample was mixed with 450 μL acetonitrile (containing 0.1% TFA) and sonicated for 1 min. The supernatants were collected using centrifugation. All samples were filtered through a 0.22 μm membrane before analysis by a UPLC system (Waters ACQuity™ Ultra Performance LC) equipped with a reverse-phase column (ACQuity UPLC@BEH, C18, 1.7 μm 2.1×150 mm) and a fluorescence detector (ACQuity FLR, Ex/Em=362/430 nm). The column was flushed with a mixture of water (0.1% TFA) and acetonitrile (0.1% TFA) at 0.3 mL/min with the following gradient: 5% acetonitrile (0-1 min), 5-95% acetonitrile (1-5 min), 95% acetonitrile (5-8 min), 95-5% acetonitrile (8-9 min), and 5% acetonitrile (9-10 min). Peaks with retention times of 5.4 min (free CPT) and 6.9 min (TT 1) were monitored.

[6] = TEM / cryo-TEM imaging of self-assembled nanostructures (dimensions); assay type: physicochemical; details: self-assembled nanotubes in water, 200 μM, n>40
Procedure: About 200 μM stock solutions of corresponding TTs in water were prepared by dissolution of the lyophilized powders. After aging overnight, TEM samples were prepared by depositing 7 μL of the appropriate solution onto a carbon-coated copper grid (Electron Microscopy Services, Hatfield, Pa., USA), wicking away the excess solution with a small piece of filter paper. Next, 7 μL of a 2 wt % uranyl acetate aqueous solution was deposited on the surface for 30 seconds, wicking away the excess solution with filter paper. The grids were then air-dried overnight at room temperature prior to imaging. Bright-field TEM imaging was performed using an FEI Tecnai 12 TWIN Transmission Electron Microscope operated at an acceleration voltage of 100 kV. All TEM images were acquired by a SIS Megaview III wide-angle CCD camera or 16 bit 2K×2K FEI Eagle bottom mount camera.
Cryo-TEM imaging was performed using higher sample concentrations of 800 μM (compared with 200 μM for conventional TEM imaging). Extended imaging times can result in damage to the vitreous ice film caused by the electron beam and so higher concentrations can allow a more rapid visualization that reduces this likelihood. About 6 μL of the appropriate solution was dropped onto a lacey carbon-film-supported TEM copper grid (Electron Microscopy Services, Hatfield, Pa., USA). All the TEM grids used for cryo-TEM imaging were pretreated with plasma air to render the lacey carbon film hydrophilic. A thin film of the sample solution was produced using a Vitrobot with a controlled humidity chamber (FEI). After loading of the sample solution, the lacey carbon grid was blotted using preset parameters and plunged instantly into a liquid ethane reservoir precooled by liquid nitrogen. The vitrified samples were then transferred to a cryo-holder and cryo-transfer stage that was cooled by liquid nitrogen. To prevent sublimation of vitreous water, the cryo-holder temperature was maintained below −170° C. during the imaging process. All images were recorded by a Tecnai 12 microscope with a cryo-holder, and the images were acquired by a 16 bit 2K×2K FEI Eagle bottom mount camera.
Self-Assembly of SAPDs from TT1. To study the self-assembly behavior of the SAPDs, we directly dissolved the lyophilized powders in deionized water at a concentration of 2 mM and neutral pH.

[7] = Zeta potential measurement; assay type: physicochemical; details: 1×-DPBS buffer
Procedure: TT solutions of 200 μM in 1×-DPBS buffer (pH=7.4) were prepared by directly mixing identical volumes of a 400 μM aqueous TT solution and 2×-DPBS buffer (pH=7.4). In some embodiments, solutions at a concentration of 2 mM in PBS buffer (pH=7.4) were prepared and aged overnight prior to zeta potential measurement. TT solutions of 200 μM in 1×-DPBS buffer (pH=5.0) were prepared by mixing identical volumes of a 400 μM aqueous TT solution and 2×-DPBS buffer (pH=5.0), which was pretreated with 6 M HCl. The zeta potential measurements were performed on a Zetasizer Nano ZS90 (Malvern Instruments Ltd., UK). The prepared solutions were loaded in capillary cells and equilibrated for 2 min prior to measurement. The average values and their standard deviations are calculated from three replicate measurements. The zeta potential of the assembled structures was obtained by measuring the electrophoretic movement of the nanostructures under the applied electric field, where the movement velocity is determined by phase analysis light scattering. Variations of the zeta potential value over time were determined by measuring the solutions at different aging time points (1, 2, 4 and 7 days) and are plotted in FIG. 10.

[8] = Gel release of TT 2 nanotube hydrogel; assay type: physicochemical; details: 10 mM in 1×-DPBS, 37° C., over 31 days
Procedure: TT 2 was dissolved in water and hydrogel formation triggered by the addition of 10×-DPBS to give a final TT 2 concentration of 10 mM in 1×-DPBS. 200 μL of the hydrogel was placed at the bottom of centrifuge tube and allowed to re-gel overnight. Three replicate experiments were prepared together and incubated at 37° C. Fresh 1×-DPBS (300 μL) was layered on top of the hydrogel and was refreshed at predetermined time points: 1, 2, 4, 7, 10, 13, 16, 19, 22, 25, 28, and 31 days. The samples were frozen with liquid nitrogen and stored at −30° C. until analysis. The amount of TT 2 in the top DPBS layer was determined by analytical RP-HPLC using the conditions described in the previous paragraph. The cumulative release of TT 2 from its hydrogels was calculated and plotted as a percentage of the total amount of hydrogel. The conjugate was seen to be released almost linearly from the hydrogel with ˜10% of the prodrugs being released over the 31-day period.

[9] = system: U87 MG human glioblastoma; assay: Antitumor efficacy study for local delivery (intratumoral TT 2 hydrogel); assay type: in vivo, athymic nude mice; details: 10 mM hydrogel, 30 μL intratumoral
Procedure: The hydrogel formation of TT 2 in vivo was investigated through subcutaneous injection of a TT 2 gel. […] The tumor model used in local delivery is the same U87 MG human glioblastoma line used in the systemic delivery study described above. Mice were randomly selected (n=7) and treated with TT 2 hydrogel at a fixed dose (10 mM, 30 μL) through intratumoral injection. Tumor volumes and body weights were measured and recorded every other day. The tumor volume was determined by measuring the tumor in two dimensions with calipers and using the formula “tumor volume=(length×width^2)/2”. Each animal was euthanized once the tumor […] reached the predetermined end point size of 2000 mm^3.
The antitumor efficacy of TT 2 hydrogel was then evaluated in a subcutaneous U87 MG xenograft model via intratumoral injection of a 10 mM TT 2 SP hydrogel (30 μL). All seven mice studied experienced tumor regression with a minimum mean tumor volume of 36 mm^3 at day 25 and survived for more than 45 days (FIG. 3K).

[10] = system: U87 MG human brain cancer cells; details: 48 h
Procedure: as §1

Row | SMILES | IC50 [1] [nM] | median survival [3] [days] | Diameters measured by conventional TEM [6] [nm] | ζ-potential at pH 7.4 versus pH 5.0 [7] | ζ-Potential ([7]; pH 5.0, 200 μM) [mV] | ζ-Potential ([7]; pH 7.4, 200 μM) [mV] | further results
1 | CCc1c2c(nc3ccc(OC(=O)N4CCC(N5CCCCC5)CC4)cc13)-c1cc3c(c(=O)n1C2)COC(=O)[C@]3(O)CC [irinotecan, reference compound] | 6500 | 27 |  |  |  |  | reported MTD [2]: 100 mg/kg; median survival (HT-29 cells; SAPDs 10 mg/kg i.v. days 1, 5, 9, 13, irinotecan 100 mg/kg i.p. days 1, 8, 15): 51 days
2 | CC[C@@]1(O)C(=O)OCc2c1cc1n(c2=O)Cc2cc3ccccc3nc2-1 [CPT, Camptothecin, reference compound] | 62 | 17 |  |  |  |  | outcome of intravenous administration ([4]; 9 mg/kg i.v., DMSO/ethanol/PEG-400/water formulation): immediate death; tolerable dosage ([4]; intraperitoneal injection): 4.5 mg/kg; MTD ([4]; mouse, in vivo, intraperitoneal): ~5 mg/kg; treatment outcome (deaths) (HT-29 cells; free CPT 9 mg/kg i.p., n=5): death of all five mice after the second dose; concentration at 1 h ([5]; read-out: drug concentration in plasma): 37 ng/g; concentration at 1 h ([5]; read-out: drug concentration in tumor): 92 ng/g
3 | CC[C@]1(OC(=O)OCCSSC[C@@H](NC(C)=O)C(=O)N[C@@H](CCCCNC(=O)[C@@H](CSSCCOC(=O)O[C@]2(CC)C(=O)OCc3c2cc2n(c3=O)Cc3cc4ccccc4nc3-2)NC(C)=O)C(=O)N[C@@H](CCC(=O)O)C(=O)N[C@@H](CCC(=O)O)C(N)=O)C(=O)OCc2c1cc1n(c2=O)Cc2cc3ccccc3nc2-1 [TT 3] |  |  | 8.4 ± 0.9 | more negative ζ-potentials at pH 7.4 than 5.0 |  |  | 
4 | CC[C@]1(OC(=O)OCCSSC[C@@H](NC(C)=O)C(=O)N[C@@H](CCCCNC(=O)[C@@H](CSSCCOC(=O)O[C@]2(CC)C(=O)OCc3c2cc2n(c3=O)Cc3cc4ccccc4nc3-2)NC(C)=O)C(=O)N[C@H](CCCCNC(=O)CN2CCN(CC(=O)O)CCN(CC(=O)O)CCN(CC(=O)O)CC2)C(N)=O)C(=O)OCc2c1cc1n(c2=O)Cc2cc3ccccc3nc2-1 [TT 5] |  |  | 8.4 ± 0.9 | more negative ζ-potentials at pH 7.4 than 5.0 |  |  | 
5 | CC[C@]1(OC(=O)OCCSSC[C@@H](NC(C)=O)C(=O)N[C@@H](CCCCNC(=O)[C@@H](CSSCCOC(=O)O[C@]2(CC)C(=O)OCc3c2cc2n(c3=O)Cc3cc4ccccc4nc3-2)NC(C)=O)C(=O)N[C@@H](CCCCN)C(=O)N[C@@H](CCCCN)C(N)=O)C(=O)OCc2c1cc1n(c2=O)Cc2cc3ccccc3nc2-1 [TT 2] |  |  | 8.1 ± 0.6 |  | 31.8 | 22.1 | cumulative release of TT 2 from hydrogel [8]: ~10%; mice with complete tumor regression [9]: Four out of seven; survival to end point of tumor-free mice [9]: around 140 d; minimum mean tumor volume ([9]; day 25, n=7): 36 mm^3; survival of all treated mice ([9]; n=7): more than 45 days; IC50 [10]: 123 nM
6 | CC[C@]1(OC(=O)OCCSSC[C@@H](NC(C)=O)C(=O)N[C@@H](CCCCNC(=O)[C@@H](CSSCCOC(=O)O[C@]2(CC)C(=O)OCc3c2cc2n(c3=O)Cc3cc4ccccc4nc3-2)NC(C)=O)C(=O)N[C@@H](CCCCN)C(=O)N[C@@H](CCC(=O)O)C(N)=O)C(=O)OCc2c1cc1n(c2=O)Cc2cc3ccccc3nc2-1 [TT 4] |  |  | 8.3 ± 0.9 |  | −2.3 | −18.8 | 
